Results reported in patent US6841720B1, “Inducible promoters” (Biogemma UK LTD, priority 1998, dated 2005).
Like-named read-outs stand apart in the source and are kept apart here.

What was measured:
[1] = tested on: AoPRT-L promoter-GUS fusion; assay: AoPRT-L promoter-GUS expression in transgenic tobacco (fluorimetric GUS assay); assay type: in vivo, Nicotiana tabacum (cv Samsun); conditions: for AoPRT-L-promoter-GUS expression after infiltration of pro-oxidant: infiltrated into leaf panels, over the concentration range tested; for Induction of AoPRT-L promoter-GUS by wound signals: transgenic tobacco, summary statement; for Time-dependent induction of AoPRT-L promoter-GUS fusion: treatment with 1 mM, time course; for Induction of AoPRT-L promoter-GUS fusion: root-fed 3 days, leaf cores
Protocol: The AoPRT-L promoter construct (p22-GUS(INT) Bin 19) was transformed into Nicotiana tabacum (cv Samsun) using standard Agrobacterium tumefaciens-mediated transformation techniques (Draper et al., (1988): Plant Genetic Transformation and Gene Expression—A Laboratory Manual. Blackwell Scientific Publications, Oxford, UK). The expression of the GUS gene driven by the AoPRT-L promoter was analysed using assays described previously (Draper et al., (1988) supra).
Plants were sprayed once, allowed to dry and then sprayed again on the same day (day 0). After 3 or 6 days leaf cores were taken and GUS activity was measured using a standard fluorimetric assay. […] Leaf cores from tobacco harbouring the AoPRT-L promoter fusion with GUS were floated for 3 or 6 days on water containing increasing concentrations of BTH after which time GUS activity in the leaf discs was measured fluorometrically.
Wounding of tobacco leaves (using the hammer method) or infection of tobacco with Pseudomonas syringae pathovar phaseolicola induces local accumulation of the wound-related phytohormone jasmonic acid (JA) (Kenton et al., submitted; Mur et al., (1997) Trends in Microbiol 5:297-300). Leaf cores from tobacco harbouring the AoPRT-L promoter fusion with GUS were floated for 3 days on water containing increasing concentrations of JA after which time GUS activity in the leaf discs was measured using a standard fluorimetric assay. […]
(§1) In order to test whether oxidative stress is likely to induce high levels of AoPRT-L promoter-driven gene expression, H2O2 was infiltrated into leaf panels of transgenic tobacco harbouring the AoPRT-L-promoter-GUS construct (FIG. 13a). […] However, H2O2 has a limited half-life (around 10 mins—Levine et al., (1994) Cell 79: 583-593) in the apoplast, thus the experiment was repeated using a stable peroxide, t-butyl-hydroperoxide (FIG. 13b).

PR-1a promoter-GUS = conditions: transgenic tobacco, cited from earlier work; for PR-1a promoter-GUS / endogenous PR-1a expression: direct application
[2] = tested on: pGB24 (pAoPRT-L-LhG4 / pOP-GUS); assay: pGB24 amplification construct GUS expression in B. napus; assay type: in vivo, B. napits; conditions: on SA or BTH induction
From the text: (§2) A way of increasing the activity of the AoPRT-L promoter whilst retaining tight regulation of the promoter is to use a system that will amplify expression of the AoPRT-L promoter. An amplification system was built using a transactivator (described in WO98/05789 and Moore et al., (1997) Proc. Natl. Acad. Sci. USA. 95, 379-381). The AoPRT-L promoter is linked to a synthetic transactivator (LhG4) and the target promoter of the transactivator (pOP) to the gene to be expressed. LhG4 consists of a mutated E. coli lacI gene fused to the transcriptional activator domain of the GALA from yeast. pOP910 is a minimal 35S CaMV promoter with two binding sites for the LhG4 protein. Since the transactivator can initiate multiple rounds of transcription from pOP, there is amplification of the initial signal that activated the AoPRT-L promoter.
(§3) The amplification system was constructed by the following steps. The pOP910 promoter was excised from pX-910TAG (K. Palme, Max Planck Institut fur Zuchtungsforchung, Koln, Germany) as a SstI-NcoI fragment and cloned into SstI,NcoI-cut pDH68 (pDH68 consists of a Pea Plastocyanin promoter (Pwee and Gray (1993) Plant J. 3, 437-449) linked to an intron GUS gene (D. Twell, Leicester University) cloned between the SstI and EcoRI sites of the vector pJIT30 (Guerineau et al., (1990) Plant Mol. Biol. 15, 127-136)). […]

[3] = tested on: pGB24 (pAoPRT-L-LhG4 / pOP-GUS); assay: pGB24 amplification construct GUS expression in tobacco; assay type: in vivo; conditions: on SA or BTH induction
From the text: as §2, §3

PR gene promoters = conditions: cited from earlier work
AoPRT-Lx3 promoter-GUS = assay: pAoPRT-Lx3-GUS expression in transgenic tobacco; assay type: in vivo, samsun tobacco; conditions: on SA or BTH induction
From the text: In order to construct an AoPRT-L promoter that has higher expression, the region −247 bp to −133 bp was amplified from p22-JIT60 and placed twice in front of a −247 bp AoPRT-L promoter. This AoPRT-Lx3 promoter was constructed as follows: The primers below were used to PCR the 0 bp to −247 bp AoPRT-L promoter from p22-JIT60.
This fragment was cloned as a KpnI, XhoI fragment between the KpnI and SalI sites of the pUC19-derived plasmid forming pAoPRT-Lx2. The −133 bp to −247 bp pAoPRT-L fragment was then cloned as a KpnI, XhoI fragment between the KpnI and SalI sites of pAoPRT-Lx2 forming pAoPRT-Lx3 (FIG. 15c). Next the AoPRT-Lx3 promoter was cloned as an KpnI, PstI fragment into KpnI, PstI-cut p22-JIT60 forming pAoPRT-Lx3-JIT60. The pAoPRT-Lx3 was transferred from pAoPRT-L-x-JIT60 as a KpnI, BamHI fragment into KpnI, BamHI-cut p22-GUS (INT) JIT 60. Finally the resulting pAoPRT-Lx3 -GUS-CaMV poly A chimeric gene was cloned as KpnI, XhoI fragments into KpnI, SalI-cut pBin19 and transformed into samsun tobacco.

AoPRT-L-GUS = AoPRT-L-GUS expression in transgenic maize; assay type: in vivo, Zea mays; conditions: treated with SA or BTH
From the text: Maize plants containing AoPRT-L-GUS were produced by biolistic transformation of callus material with pJIT60-P22 GUS int.

tobacco leaf tissue = assay: Visible tissue damage in infiltrated transgenic tobacco leaf panels
Protocol: as §1

[4] = tested on: extracellular aPR-5 proteins; conditions: leaf discs, cited from earlier work
barley aPR5 = conditions: in vivo; cited from earlier work
[5] = tested on: barley homologue of rice thaumatin-like protein; conditions: 1 ppm; cited from earlier work
AoPRT-L mRNA = AoPRT-L mRNA accumulation in Asparagus (Northern hybridisation); assay type: in vivo, Asparagus officinalis; conditions: treated Asparagus
From the text: In chopped etiolated A. officinalis seedlings (<=0.5 cm in length) the AoPRT-L transcript was detectable from 3 days after wounding (FIG. 3b).

## CSC(=O)c1cccc2nnsc12 [BTH, benzo(1,2,3)thiadiazole-7-carbothoic acid S-methyl ester]
[1]; leaf cores floated 3 or 6 days
  BTH concentration at which BTH-induced GUS activity is observed: 1.25 µM
[1]; sprayed twice on day 0, 20 μM BTH vs 1 mM SA, leaf cores after 3 or 6 days
  Induction of AoPRT-L promoter-driven GUS expression by foliar spray: as effective an inducer of GUS expression driven by the AoPRT-L promoter as was SA
PR-1a promoter-GUS
  PR-1a promoter-GUS / endogenous PR-1a expression: high levels
[2]
  GUS activity of pGB24 plants vs equivalent AoPRT-L-GUS plants: significantly greater level of GUS activity
[3]
  GUS activity of pGB24 plants vs equivalent AoPRT-L-GUS plants: significantly greater level of GUS activity
PR gene promoters; all plants tested including arabidopsis and wheat
  PR gene expression induced by commercial preparations: very strong PR gene expression
PR gene promoters; aqueous solution
  Concentration sufficient to induce PR gene expression: 1.2 µM
PR gene promoters; spraying
  Persistence of gene induction: at least 10 days
  Time of maximal gene induction after application: 2 days
AoPRT-Lx3 promoter-GUS
  GUS activity of pAoPRT-Lx3-GUS plants vs equivalent AoPRT-L-GUS plants: significantly greater level of GUS activity
AoPRT-L-GUS
  GUS activity of AoPRT-L-GUS maize on treatment: exhibited GUS activity

## CC(C)(C)OO [t-butyl-hydroperoxide]
[1]
  AoPRT-L-promoter-GUS expression after infiltration of pro-oxidant: no GUS expression was detected
Tobacco leaf tissue; leaf panels, higher concentrations for t-butyl-hydroperoxide
  Visible tissue damage after infiltration: severe visible tissue damage

## O=C(O)COc1ccc(Cl)cc1Cl [2,4 D]
[4]; 10 mM
  Induction of extracellular aPR-5 proteins: induced

## CC(=O)Oc1ccccc1C(=O)O [aspirin, acetyl-SA]
[4]; 5 mM
  Induction of extracellular aPR-5 proteins: induced

## [Cl-].[Na+] [salt, NaCl]
[1]; in vivo
  Induced expression of the AoPRT-L-promoter-GUS construct ('Neither ... induced'): Neither

## CC/C=C\C[C@H]1C(=O)CC[C@@H]1CC(=O)O [JA, jasmonic acid]
[1]; leaf cores floated 3 days on increasing concentrations, compared with 1 mM SA
  Induction of AoPRT-L promoter-driven GUS activity in leaf discs: failed to induce any increase
[1]
  Induction of AoPRT-L promoter-GUS by wound signals: not induced
Barley aPR5
  Expression of barley aPR5: induces expression

## O=C(O)c1cc(Cl)nc(Cl)c1 [INA, dichloroisonicotinic acid]
PR-1a promoter-GUS
  PR-1a promoter-GUS / endogenous PR-1a expression: high levels
[5]
  Expression of barley homologue of rice thaumatin-like protein: induces expression

## C=C [ethylene]
[1]
  Induction of AoPRT-L promoter-GUS by wound signals: not induced

## [Cl][Mn][Cl] [MnCl2]
[4]; 5 mM
  Induction of extracellular aPR-5 proteins: induced

## O=C(O)Cc1cccc2ccccc12 [NAA]
[4]; 10 mM
  Induction of extracellular aPR-5 proteins: induced

## [Cl][Hg][Cl] [HgCl3]
[4]; 5 mM
  Induction of extracellular aPR-5 proteins: induced

## CC1=CC(=O)CC(C)(C)[C@@]1(O)/C=C/C(C)=C\C(=O)O [ABA, abscisic acid]
[1]; ABA induction vs SA
  Level of induction relative to that observed using SA: an order of magnitude lower
[1]; high concentration of ABA, leaf discs
  AoPRT-L-promoter-GUS in leaf discs: slight increase

## O=C(O)c1ccc(O)cc1 [4hBA, 4-hydroxybenzoic acid]
[1]
  Time-dependent induction of AoPRT-L promoter-GUS fusion: inactive

## O=P(O)(O)CCCl [ethephon]
[4]; 10 mM
  Induction of extracellular aPR-5 proteins: induced
AoPRT-L mRNA
  AoPRT-L mRNA accumulation: not induced

## O=C(O)CC(O)(CC(=O)O)C(=O)O [citric acid]
[4]; 5 mM
  Induction of extracellular aPR-5 proteins: induced

## O=C(O)C(=O)O [oxalic acid]
[4]; 5 mM
  Induction of extracellular aPR-5 proteins: induced

## O=C(O)c1ccccc1O [SA, salicylic acid]
[1]; 1 mM SA
  Time after start of treatment at which induction is observable: 1 days
[1]; SA induction
  GUS activity of AoPRT-L-GUS plants as fraction of that in pPR-1a-GUS-transformed tobacco: about ⅓
[1]; 0.1 mM
  Induction of AoPRT-L promoter-GUS fusion: little induction
[1]; 1 mM
  Induction of AoPRT-L promoter-GUS fusion: Substantial induction
[1]
  Time-dependent induction of AoPRT-L promoter-GUS fusion: clear time-dependent induction
PR-1a promoter-GUS
  PR-1a promoter-GUS / endogenous PR-1a expression: high levels
  SA concentration at which PR-1a-GUS is clearly induced: 10 to 100 µM
[2]
  GUS activity of pGB24 plants vs equivalent AoPRT-L-GUS plants: significantly greater level of GUS activity
[3]
  GUS activity of pGB24 plants vs equivalent AoPRT-L-GUS plants: significantly greater level of GUS activity
PR gene promoters; spraying, injection or root-feeding
  Induction of expression of PR gene promoters over basal levels: 50-1000 fold
AoPRT-L mRNA
  AoPRT-L mRNA accumulation: accumulation was observed
AoPRT-Lx3 promoter-GUS
  GUS activity of pAoPRT-Lx3-GUS plants vs equivalent AoPRT-L-GUS plants: significantly greater level of GUS activity
AoPRT-L-GUS
  GUS activity of AoPRT-L-GUS maize on treatment: exhibited GUS activity

## OO [H2O2, hydrogen peroxide]
[1]
  AoPRT-L-promoter-GUS expression after infiltration of pro-oxidant: failed to induce
Tobacco leaf tissue; in vivo
  Visible tissue damage after infiltration: no visible symptoms
